Experimental data published in patent US11021444B2, “Antiviral compounds” (priority 2013, dated 2021).
Like-named read-outs stand apart in the source and are kept apart here.

What was measured:
[1] = Cytotoxicity Determination (CCK-8, without addition of virus); assay type: cell-based; conditions: human
Procedure, shortened: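 Cytotoxicity was measured by CCK-8 after 3-4 hours at 37 °C, following 5 days of uninfected exposure at 37 °C and 5% CO2. Compounds ran as duplicate 7-point 1/2 dilutions starting at 100 μM, with 1% final DMSO. HEp-2 cells had been plated at 1,500/well the day before.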

[2] = molecular target: recombinant RSV complex (Human respiratory syncytial virus A, UniProt P28887); experiment: RSV Polymerase Inhibition Assay; assay type: biochemical
Sequence of recombinant RSV complex (P28887 whole entry): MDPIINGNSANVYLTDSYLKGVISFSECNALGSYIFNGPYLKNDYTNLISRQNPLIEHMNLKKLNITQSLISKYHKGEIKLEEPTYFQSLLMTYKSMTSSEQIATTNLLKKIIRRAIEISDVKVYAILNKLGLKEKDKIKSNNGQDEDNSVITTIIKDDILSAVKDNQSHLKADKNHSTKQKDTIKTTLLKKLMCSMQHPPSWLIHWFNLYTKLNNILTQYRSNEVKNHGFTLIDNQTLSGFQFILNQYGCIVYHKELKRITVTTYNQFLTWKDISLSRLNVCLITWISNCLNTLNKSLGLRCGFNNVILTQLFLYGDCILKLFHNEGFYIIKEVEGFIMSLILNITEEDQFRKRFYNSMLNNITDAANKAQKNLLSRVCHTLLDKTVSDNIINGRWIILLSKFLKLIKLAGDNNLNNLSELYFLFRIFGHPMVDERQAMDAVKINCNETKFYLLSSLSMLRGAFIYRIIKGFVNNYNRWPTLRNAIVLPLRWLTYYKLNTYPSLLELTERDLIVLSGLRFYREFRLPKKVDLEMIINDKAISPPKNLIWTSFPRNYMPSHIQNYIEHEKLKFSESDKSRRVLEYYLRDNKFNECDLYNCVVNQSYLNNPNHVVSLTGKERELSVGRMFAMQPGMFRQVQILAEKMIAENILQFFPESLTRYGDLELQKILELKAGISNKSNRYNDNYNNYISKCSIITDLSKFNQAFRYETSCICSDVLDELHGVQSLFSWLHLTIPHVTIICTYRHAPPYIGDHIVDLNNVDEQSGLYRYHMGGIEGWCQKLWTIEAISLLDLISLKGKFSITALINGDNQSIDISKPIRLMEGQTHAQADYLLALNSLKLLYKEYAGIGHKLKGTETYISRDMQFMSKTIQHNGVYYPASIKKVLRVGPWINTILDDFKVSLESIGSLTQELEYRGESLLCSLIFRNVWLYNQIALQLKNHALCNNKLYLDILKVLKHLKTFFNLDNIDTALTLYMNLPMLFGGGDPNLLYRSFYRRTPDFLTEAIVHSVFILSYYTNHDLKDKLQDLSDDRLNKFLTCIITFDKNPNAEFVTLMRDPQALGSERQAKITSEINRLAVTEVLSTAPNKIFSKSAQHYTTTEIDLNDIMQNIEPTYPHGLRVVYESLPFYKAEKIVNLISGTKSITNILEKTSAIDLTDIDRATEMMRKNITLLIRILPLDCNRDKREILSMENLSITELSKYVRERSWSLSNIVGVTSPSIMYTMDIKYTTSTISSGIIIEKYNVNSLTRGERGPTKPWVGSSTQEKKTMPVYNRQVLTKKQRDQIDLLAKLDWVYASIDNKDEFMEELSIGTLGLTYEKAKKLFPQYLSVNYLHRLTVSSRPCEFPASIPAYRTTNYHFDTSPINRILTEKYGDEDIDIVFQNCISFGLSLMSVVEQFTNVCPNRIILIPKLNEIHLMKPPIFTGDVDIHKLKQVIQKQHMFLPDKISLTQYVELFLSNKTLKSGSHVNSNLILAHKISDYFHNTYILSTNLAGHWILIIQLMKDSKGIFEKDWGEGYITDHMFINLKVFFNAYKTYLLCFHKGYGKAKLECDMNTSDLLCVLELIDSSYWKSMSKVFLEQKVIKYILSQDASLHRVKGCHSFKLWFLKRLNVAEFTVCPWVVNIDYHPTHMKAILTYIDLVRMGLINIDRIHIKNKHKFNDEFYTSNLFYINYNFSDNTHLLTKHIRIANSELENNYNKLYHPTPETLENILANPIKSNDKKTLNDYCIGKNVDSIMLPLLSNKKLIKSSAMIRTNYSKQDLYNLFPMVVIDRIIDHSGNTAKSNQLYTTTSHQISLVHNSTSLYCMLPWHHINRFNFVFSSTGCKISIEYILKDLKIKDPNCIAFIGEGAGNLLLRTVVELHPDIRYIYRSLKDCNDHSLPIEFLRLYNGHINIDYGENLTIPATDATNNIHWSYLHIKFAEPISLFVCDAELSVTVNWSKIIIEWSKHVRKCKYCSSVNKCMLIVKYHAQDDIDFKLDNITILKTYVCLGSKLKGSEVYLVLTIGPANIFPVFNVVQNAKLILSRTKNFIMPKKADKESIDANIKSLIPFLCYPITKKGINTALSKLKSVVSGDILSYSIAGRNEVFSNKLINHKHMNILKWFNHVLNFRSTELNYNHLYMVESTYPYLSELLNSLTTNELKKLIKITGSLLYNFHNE
Sequence of recombinant RSV complex (P03421 whole entry, further chain): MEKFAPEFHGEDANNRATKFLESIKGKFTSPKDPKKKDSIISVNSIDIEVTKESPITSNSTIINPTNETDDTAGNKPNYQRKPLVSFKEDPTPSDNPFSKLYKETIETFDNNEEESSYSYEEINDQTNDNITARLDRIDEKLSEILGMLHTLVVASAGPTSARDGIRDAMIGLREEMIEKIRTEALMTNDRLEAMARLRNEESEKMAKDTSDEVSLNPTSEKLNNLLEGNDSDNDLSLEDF
Procedure, shortened: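 Inhibition measured as reduced incorporation of radiolabel into RNA products, detected by scintillation counting. Reactions: recombinant RSV complex (10 nM), RNA oligonucleotides, Tris-HCl pH 7.5, 6 mM MgCl2, inhibitor titration, 2 h at 30 °C, EDTA stop.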

[3] = system: RSV replicon; experiment: microbe, parasite or virus in culture; assay type: cell-based; conditions: human respiratory syncytial virus, read-out: EC50, the concentration of the drug required for reducing RSV replicon RNA by 50%
[4] = system: Respiratory Syncytial Virus (RSV) long strain; experiment: microbe, parasite or virus in culture; assay type: cell-based; conditions: human respiratory syncytial virus, Tables A and B list compounds by EC50 band
Procedure, shortened: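 CPE-reduction format: viability measured colorimetrically with CCK-8 (450 nm, 630 nm reference) after 3-4 h, following 5-day infection at 37 °C, 5% CO2. Cells were HEp-2; inoculum 100 TCID50/well; duplicate 9-point 1/3 series starting at 100 μM or 1 μM.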

[5] = 50% cytotoxicity concentration (CC50)
[6] = HEp-2, 120 h, read-out: 50% effective concentration (EC50), HEp-2 cells infected with RSV long strain, 5 days, CCK-8 readout
[7] = 120 h, read-out: 50% effective concentration (EC50), HEp-2 cells infected with RSV long strain, 5 days, CCK-8 readout

| Compound | CC50 at 5 days [1, 5] [nM] | IC50 [2] [nM] | EC50 [3] [nM] | EC50 [4, 6] [nM] | EC50 [4, 7] [nM] | CC50 at 5 days ([1]; no virus, 5 days, CCK-8 readout, Tables C and D list compounds by CC50 band) [nM] |
| --- | --- | --- | --- | --- | --- | --- |
| COc1cc(C(=O)NCC(F)(c2ccc(OC)c(-c3ccc(F)c(Cl)c3)n2)C2CC2)ccc1OCCO (stereo not drawn) [Compound 366] | 10000 to 100000 | < 1000 | < 1000 | < 1000 | – | – |
| COc1cc(C(=O)NCC(C)(O)c2ccc(OC)c(-c3ccc(F)c(Cl)c3)n2)ccc1OC1CC1 (stereo not drawn) [Compound 369] | 10000 to 100000 | < 1000 | < 1000 | < 1000 | – | – |
| COc1cc(C(=O)NCC(O)(c2ccc(OC)c(-c3ccc(F)c(Cl)c3)n2)C(F)(F)F)ccc1OC1CC1 (stereo not drawn) [Compound 370] | > 100000 | < 1000 | < 1000 | – | < 1000 | – |
| COc1cc(C(=O)NCC(C)(O)c2ccc(OC)c(-c3ccc(F)c(Cl)c3)n2)ccc1OC(C)(C)C (stereo not drawn) [Compound 371] | 10000 to 100000 | < 1000 | < 1000 | < 1000 | – | – |
| COc1cc(C(=O)NCC(C)(O)c2ccc(OC)c(-c3ccc(F)c(Cl)c3)n2)ccc1OCC(F)F (stereo not drawn) [Compound 372] | 10000 to 100000 | < 1000 | < 1000 | < 1000 | – | – |
| COc1cc(C(=O)NCC(O)(c2ccc(OC)c(-c3ccc(F)c(Cl)c3)n2)C(F)(F)F)ccc1OCC(F)F (stereo not drawn) [Compound 373] | > 100000 | < 1000 | < 1000 | < 1000 | – | – |
| COc1cc(C(=O)OCC(O)(CN)c2ccc(OC)c(-c3ccc(F)c(Cl)c3)n2)ccc1OC1CC1 (stereo not drawn) [Compound 383] | 10000 to 100000 | < 1000 | < 1000 | < 1000 | – | – |
| COc1cc(C(=O)NCC(O)(CO)c2ccc(OC)c(-c3ccc(F)c(Cl)c3)n2)ccc1OC1CC1 (stereo not drawn) [Compound 384] | 10000 to 100000 | < 1000 | < 1000 | < 1000 | – | – |
| COc1cc(C(=O)NCC(F)(CO)c2ccc(OC)c(-c3ccc(F)c(Cl)c3)n2)ccc1OC1CC1 (stereo not drawn) [Compound 385] | 10000 to 100000 | < 1000 | < 1000 | < 1000 | – | – |
| CCNC(=O)NC(C)(C)c1cc(-c2ccc(F)c(Cl)c2)nc(C(O)(CNC(=O)c2ccc(OC3CC3)c(OC)c2)C(F)(F)F)c1 (stereo not drawn) [Compound 387] | > 100000 | < 1000 | < 1000 | < 1000 | – | – |
| CCNC(C)(C)c1cc(-c2ccc(F)cc2)nc(C(O)(CNC(=O)c2ccc(OC3CC3)c(OC)c2)C(F)(F)F)c1 (stereo not drawn) [Compound 388] | 10000 to 100000 | < 1000 | < 1000 | < 1000 | – | – |
| CCNC(C)(C)c1cc(-c2ccc(F)c(Cl)c2)nc(C(O)(CNC(=O)c2ccc(OC[C@H](C)O)c(OC)c2)C(F)(F)F)c1 (stereo partly drawn) [Compound 391] | 10000 to 100000 | < 1000 | < 1000 | < 1000 | – | – |
| COc1cc(C(=O)NCC(O)(c2cc(C(C)(C)NC(C)C)cc(-c3ccc(F)c(Cl)c3)n2)C(F)(F)F)ccc1OC1CC1 (stereo not drawn) [Compound 392] | 10000 to 100000 | < 1000 | < 1000 | < 1000 | – | – |
| COc1cc(C(=O)NCC(O)(c2cc(C(C)(C)N)cc(-c3ccc(F)c(Cl)c3)n2)C(F)(F)F)ccc1OCC(C)(C)O (stereo not drawn) [Compound 396] | 10000 to 100000 | < 1000 | < 1000 | < 1000 | – | – |
| COc1cc(C(=O)NCC(O)(c2cc(C(C)(C)N(C)C)cc(-c3ccc(F)c(Cl)c3)n2)C(F)(F)F)ccc1OC1CC1 (stereo not drawn) [Compound 400] | 10000 to 100000 | < 1000 | < 1000 | – | < 1000 | – |
| COc1cc(C(=O)NCC(C)(O)c2ccc(OC)c(-c3ccc(F)c(Br)c3)n2)ccc1OCC(N)=O (stereo not drawn) [Compound 403] | > 100000 | < 1000 | < 1000 | < 1000 | – | – |
| COc1cc(C(=O)NCC(C)(O)c2ccc(OC)c(-c3c[nH]c4c(F)cccc34)n2)ccc1OCC(N)=O (stereo not drawn) [Compound 419] | > 100000 | < 1000 | < 1000 | < 1000 | – | – |
| COc1cc(C(=O)NCC(O)(CF)c2ccc(OC)c(-c3ccc(F)c(Cl)c3)n2)ccc1OCCO (stereo not drawn) [Compound 424] | 10000 to 100000 | < 1000 | < 1000 | < 1000 | – | – |
| COc1ccc(C(O)(CNC(=O)c2ccc(OCCO)c(Cl)c2)C2CC2)nc1-c1ccc(F)c(Cl)c1 (stereo not drawn) [Compound 425] | 10000 to 100000 | < 1000 | < 1000 | < 1000 | – | – |
| COc1cc(C(=O)NCC(O)(c2ccc(OC)c(-c3ccc(F)c(Cl)c3)n2)C2CC2)ccc1Cn1cncn1 (stereo not drawn) [Compound 434] | 10000 to 100000 | < 1000 | < 1000 | < 1000 | – | – |

| Compound | CC50 at 5 days [1, 5] [nM] | IC50 [2] [nM] | EC50 [3] [nM] | EC50 [4, 6] [nM] | EC50 [4, 7] [nM] | CC50 at 5 days ([1]; no virus, 5 days, CCK-8 readout, Tables C and D list compounds by CC50 band) [nM] |
| --- | --- | --- | --- | --- | --- | --- |
| COc1cc(C(=O)NCC(O)(c2ccc(OC)c(-c3ccc(F)c(Cl)c3)n2)C(F)F)ccc1OCCO (stereo not drawn) [Compound 436] | 10000 to 100000 | < 1000 | < 1000 | < 1000 | – | – |
| COc1cc(C(=O)NCC(O)(c2ccc(OC)c(-c3ccc(F)c(Cl)c3)n2)C2CC2)ccc1OC(C)(F)F (stereo not drawn) [Compound 437] | 10000 to 100000 | < 1000 | < 1000 | 1000 to 50000 | – | – |
| COc1cc(C(=O)NCC(O)(c2ccc(OC)c(-c3ccc(F)c(Cl)c3)n2)C2CC2)ccc1Cn1ccnc1 (stereo not drawn) [Compound 438] | 10000 to 100000 | < 10000 | 1000 to 50000 | 1000 to 50000 | – | – |
| COc1cc(C(=O)NCC(O)(c2ccc(OC)c(-c3ccc(F)c(Br)c3)n2)C(F)(F)F)ccc1OCC(N)=O (stereo not drawn) [Compound 443] | 10000 to 100000 | < 1000 | < 1000 | < 1000 | – | – |
| COc1cc(C(=O)NCC(O)(c2ccc(OC)c(-c3ccc(F)c(Cl)c3)n2)C(F)F)ccc1OC[C@@H](C)O (stereo partly drawn) [Compound 444] | 10000 to 100000 | < 1000 | < 1000 | < 1000 | – | – |
| COc1cc(C(=O)NCC(O)(c2ccc(OC)c(-c3ccc(F)c(Cl)c3)n2)C(F)F)ccc1OC1CC1 (stereo not drawn) [Compound 445] | 10000 to 100000 | < 1000 | < 1000 | < 1000 | – | – |
| CNc1cc(-c2ccc(F)c(Cl)c2)nc(C(O)(CNC(=O)c2ccc(OC3CC3)c(OC)c2)C(F)(F)F)c1 (stereo not drawn) [Compound 448] | 10000 to 100000 | < 1000 | < 1000 | < 1000 | – | – |
| COc1ccc(C(O)(CO)CNC(=O)c2ccc(OC3CCNC3=O)c(Cl)c2)nc1-c1ccc(F)c(Cl)c1 (stereo not drawn) [Compound 452] | 10000 to 100000 | < 1000 | < 1000 | < 1000 | – | – |
| COc1ccc(C(O)(CO)CNC(=O)c2cc(OC)c3ncccc3c2)nc1-c1ccc(F)c(Cl)c1 (stereo not drawn) [Compound 453] | 10000 to 100000 | < 1000 | < 1000 | < 1000 | – | – |
| COc1cc(C(=O)NCC(O)(c2ccc(OC)c(-c3ccc(F)c(Cl)c3)n2)C(C)O)ccc1OC1CC1 (stereo not drawn) [Compound 454] | 10000 to 100000 | < 1000 | < 1000 | < 1000 | – | – |
| COc1cc(C(=O)NCC(O)(c2cc(C(C)N)cc(-c3ccc(F)c(Cl)c3)n2)C(F)(F)F)ccc1OC1CC1 (stereo not drawn) [Compound 459] | – | < 1000 | < 1000 | < 1000 | – | 10000 to 100000 |
| COc1cc(C(=O)NCC(C)(O)c2cc(C(C)(C)N)cc(-c3ccc(F)c(Cl)c3)n2)ccc1OC1CC1 (stereo not drawn) [Compound 460] | 10000 to 100000 | < 1000 | < 1000 | – | < 1000 | – |
| COc1cc(C(=O)NCC(O)(CC2CNC2)c2ccc(OC)c(-c3ccc(F)c(Cl)c3)n2)ccc1OC1CC1 (stereo not drawn) [Compound 461] | 10000 to 100000 | < 1000 | 1000 to 50000 | < 1000 | – | – |
| COc1cc(C(=O)NCC(O)(CN2CCC2)c2ccc(OC)c(-c3ccc(F)c(Cl)c3)n2)ccc1OC1CC1 (stereo not drawn) [Compound 462] | 10000 to 100000 | < 1000 | < 1000 | < 1000 | – | – |
| CNC(C)c1cc(-c2ccc(F)c(Cl)c2)nc(C(O)(CNC(=O)c2ccc(OC3CC3)c(OC)c2)C(F)(F)F)c1 (stereo not drawn) [Compound 466] | 10000 to 100000 | < 1000 | < 1000 | < 1000 | – | – |
| COc1cc(C(=O)NCC(C)(O)c2cc(C(C)(C)C)cc(-c3ccc(F)c(Cl)c3)n2)ccc1OCCO (stereo not drawn) [Compound 467] | 10000 to 100000 | < 1000 | < 1000 | < 1000 | – | – |
| COc1cc(C(=O)NCC(O)(c2ccc(OC)c(-c3ccc(F)c(Cl)c3)n2)C(F)(F)F)ccc1OC1CC(F)C1 (stereo not drawn) [Compound 470] | > 100000 | < 1000 | < 1000 | – | < 1000 | – |
| COc1cc(C(=O)NCC(O)(c2cc3c(c(-c4ccc(F)c(Cl)c4)n2)OCC3(C)N)C(F)(F)F)ccc1OC1CC1 (stereo not drawn) [Compound 483] | 10000 to 100000 | < 1000 | < 1000 | < 1000 | – | – |
| CNC(C)(C)c1cc(-c2ccc(F)c(Cl)c2)nc(C(O)(CNC(=O)c2ccc(O[C@H]3CCNC3=O)c(OC)c2)C(F)(F)F)c1 (stereo partly drawn) [Compound 485] | 10000 to 100000 | < 1000 | < 1000 | < 1000 | – | – |
